Article PMC4216168, “Ligand Binding and Activation of PPARγ by Firemaster® 550: Effects on Adipogenesis and Osteogenesis in Vitro” (Environmental Health Perspectives, 2014)
Where two headings read alike, the source gives them in different places.

How the values were obtained:
[1] = molecular target: T1, human recombinant PPARγ ligand binding domain (LBD) (Homo sapiens, UniProt P37231); test: biochemical; conditions: for binding to PPARγ LBD: over the concentration range tested (TBB 0.009–90 μM, TBPH 0.12–1,200 μM)
T1 construct: purchased Invitrogen
T1 sequence (P37231 238-503 limits assumed): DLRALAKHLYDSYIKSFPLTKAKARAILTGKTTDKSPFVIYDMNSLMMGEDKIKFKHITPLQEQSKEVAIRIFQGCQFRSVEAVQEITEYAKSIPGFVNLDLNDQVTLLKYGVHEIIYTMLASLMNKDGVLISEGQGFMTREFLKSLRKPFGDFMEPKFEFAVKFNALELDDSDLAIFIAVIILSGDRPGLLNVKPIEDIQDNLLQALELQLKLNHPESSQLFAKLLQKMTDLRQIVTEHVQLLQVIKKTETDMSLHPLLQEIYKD
Procedure: PPARγ ligand binding assay. Human PPARγ binding was quantified using the PolarScreen^TM PPARγ-Competitor Assay Kit (Invitrogen, Carlsbad, CA), according to the manufacturer’s instructions. […] Displacement of the fluorescent ligand, which has high polarization when bound to the PPARγ-LBD and low polarization when not bound, was assessed by measuring loss of fluorescence polarization using a SpectraMax M5 plate reader (Molecular Devices, Sunnyvale, CA). We calculated the IC50 (concentration required to reduce effect by 50%) and dissociation constants to compare the potency of the binding. Dissociation constants were calculated according to the following equation:
IC50/[PPARγ green] = Kd,ligand/Kd,probe,
where Kd,probe is the dissociation constant calculated from titration of 1.25 nM Fluormone™ PPARγ green with the PPARγ LBD.

[2] = design: method as in Patisaul et al. 2013; Roberts et al. 2012; conditions: in vivo and in vitro; ref Patisaul et al. 2013; Roberts et al. 2012; cited from earlier work
human PPARγ1 = human PPARγ1 (Homo sapiens, UniProt P37231); test: PPRE-luciferase reporter assay in Cos-7 cells transfected with human PPARG1 and RXRA; assay type: cell-based
Excerpt: Reporter assays. Cos-7 cells were transiently transfected with vectors containing human PPARG1 (provided by V.K. Chatterjee, University of Cambridge, Cambridge, UK) ([Gurnell et al. 2000]) and human RXRA (plasmid 8882; Addgene, Cambridge, MA) ([Tontonoz et al. 1994]), with PPRE x3-TK-luc (plasmid 1015; Addgene) ([Kim et al. 1998]) and CMV-eGFP reporter constructs using Lipofectamine2000 (Invitrogen). Cultures were cotransfected with either pcDNA3 (Invitrogen) or dominant negative human PPARG (PPARγ-DN; provided by V.K. Chatterjee). […] After 24 hr incubation, cells were lysed in Glo Lysis Buffer and mixed with Bright Glo reagent (both from Promega, Madison, WI). […] Luminescence was normalized by GFP (green fluorescent protein) fluorescence in the same well. The normalized luminescence for each well was then divided by the normalized luminescence measured in control DN-PPARγ–transfected wells to determine the fold-change from DN-control.

BMS2 cells [3] = conditions: 12 days; as high as 10 μg/mL (20 μM) FM550 or 20 μM TPP
Procedure: (§1) Cell viability assays. […] Apoptosis and necrosis were assessed by caspase-3 activity (Caspase-Glo® 3/7 Assay; Promega) and dead cell protease release (CytoTox-Glo™ Cytotoxicity Assay; Promega), respectively, according to the manufacturer’s instructions.

BMS2 cells [4] = test: Necrosis by dead cell protease release (CytoTox-Glo) in BMS2 cultures; conditions: 12 days; as high as 10 μg/mL (20 μM) FM550 or 20 μM TPP
Procedure: as §1

[5] = test system: Fabp4 mRNA in primary mouse bone marrow cultures; test: Fabp4 mRNA expression (qPCR) in primary bone marrow cultures; assay type: cell-based; conditions: 7 days
Procedure: (§2) mRNA expression. Total RNA was extracted, and genomic DNA was removed using the RNeasy Plus Mini Kit (QIAGEN, Valencia, CA). cDNA was prepared from total RNA using the GoScript™ Reverse Transcription System (Promega). All quantitative reverse-transcription polymerase chain reaction (qPCR) was performed using the GoTaq® qPCR Master Mix System (Promega). The following validated primers were purchased from Qiagen: 18s ribosomal RNA (Rn18s; QT01036875), fatty acid binding protein 4 (Fabp4; QT00091532), Sp7 transcription factor 7 [Osterix (Sp7; QT00293181)]. qPCR was performed using a 7500 Fast Real-Time PCR System (Applied Biosystems, Carlsbad, CA). Relative gene expression was determined according to the Pfaffl method ([Pfaffl 2001]), with the threshold value for Rn18s used for normalization. […] The quantification cycle value from naive, undifferentiated cultures prepared from 9-week-old male mice was used as the reference point. Data are reported as fold difference from naive.

[6] = test system: Sp7 mRNA in primary mouse bone marrow cultures; test: Sp7 (Osterix) mRNA expression (qPCR) in primary bone marrow cultures; assay type: cell-based; conditions: 7 days
Procedure: as §2

BMS2 cells [7] = test system: BMS2 cells
[8] = test system: constitutive androstane receptor; design: method as in earlier work; conditions: ref Honkakoski et al. 2004; Kojima et al. 2013; Suzuki et al. 2013; cited from earlier work
pregnane X receptor = test system: pregnane X receptor; design: method as in earlier work; conditions: ref Honkakoski et al. 2004; Kojima et al. 2013; Suzuki et al. 2013; cited from earlier work
estrogen receptor = test system: estrogen receptor; design: method as in earlier work; conditions: ref Honkakoski et al. 2004; Kojima et al. 2013; Suzuki et al. 2013; cited from earlier work
progesterone receptor = test system: progesterone receptor; design: method as in earlier work; conditions: ref Honkakoski et al. 2004; Kojima et al. 2013; Suzuki et al. 2013; cited from earlier work
glucocorticoid receptor = test system: glucocorticoid receptor; design: method as in earlier work; conditions: ref Honkakoski et al. 2004; Kojima et al. 2013; Suzuki et al. 2013; cited from earlier work
BMS2 cells [9] = test: Lipid accumulation (Nile red) in BMS2 cells
[10] = test system: perilipin expression in BMS2 cells; test: Perilipin protein expression (immunoblot) in BMS2 cells; conditions: BMS2, 7 days
[11] = test system: primary mouse bone marrow cultures; test: Alkaline phosphatase activity in primary bone marrow cultures; conditions: 12 days; FM550 at 5 μg/mL (10 μM)
[12] = test system: primary mouse bone marrow cultures; test: Mineralization (Alizarin red) in primary bone marrow cultures; conditions: 12 days; FM550 at 5 μg/mL (10 μM)
[13] = test system: primary mouse bone marrow cultures; test: Lipid accumulation (Nile red) in primary bone marrow cultures under osteogenic induction; conditions: 12 days, molar value of FM550 estimated
NIH 3T3L1 cells = test system: NIH 3T3L1 cells; design: method as in Springer et al. 2012; conditions: ref Springer et al. 2012; cited from earlier work
PPARα = test system: PPARα; design: method as in Springer et al. 2012; conditions: in vitro; ref Springer et al. 2012; cited from earlier work
PPARγ = test system: PPARγ; design: method as in Springer et al. 2012; conditions: in vitro; ref Springer et al. 2012; cited from earlier work

Sequence of human PPARγ1 (P19793 whole entry): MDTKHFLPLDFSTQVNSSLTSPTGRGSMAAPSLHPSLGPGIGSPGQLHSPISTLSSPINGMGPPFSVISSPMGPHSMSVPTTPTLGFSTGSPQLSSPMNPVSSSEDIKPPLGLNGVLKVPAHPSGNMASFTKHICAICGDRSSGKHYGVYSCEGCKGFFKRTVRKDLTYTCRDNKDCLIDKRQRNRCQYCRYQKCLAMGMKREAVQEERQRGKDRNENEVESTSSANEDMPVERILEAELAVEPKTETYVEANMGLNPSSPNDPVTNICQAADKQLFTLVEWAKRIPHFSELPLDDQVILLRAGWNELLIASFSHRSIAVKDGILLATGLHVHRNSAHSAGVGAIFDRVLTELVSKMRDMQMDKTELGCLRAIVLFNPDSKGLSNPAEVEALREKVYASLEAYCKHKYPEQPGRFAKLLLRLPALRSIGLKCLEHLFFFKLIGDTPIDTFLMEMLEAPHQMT
Sequence of human PPARγ1 (P37231 29-505): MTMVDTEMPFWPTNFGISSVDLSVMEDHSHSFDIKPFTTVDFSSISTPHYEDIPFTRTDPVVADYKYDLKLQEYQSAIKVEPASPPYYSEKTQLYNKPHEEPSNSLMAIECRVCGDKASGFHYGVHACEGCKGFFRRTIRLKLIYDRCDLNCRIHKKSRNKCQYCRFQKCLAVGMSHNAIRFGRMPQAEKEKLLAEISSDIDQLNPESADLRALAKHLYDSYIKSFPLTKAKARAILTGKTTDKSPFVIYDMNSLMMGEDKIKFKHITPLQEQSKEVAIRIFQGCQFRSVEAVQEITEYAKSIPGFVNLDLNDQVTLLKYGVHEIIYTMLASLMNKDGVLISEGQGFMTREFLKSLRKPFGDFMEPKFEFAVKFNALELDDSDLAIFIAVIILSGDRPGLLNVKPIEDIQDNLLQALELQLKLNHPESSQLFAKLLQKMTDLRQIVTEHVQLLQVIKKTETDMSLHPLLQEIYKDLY

With `CCCCC(CC)COC(=O)c1cc(Br)c(Br)c(Br)c1Br` (centres unmarked) [TBB, tetrabromobenzoate] the “binding to PPARγ LBD” value [1] was “did not demonstrate any binding”.
For `CCCCC(CC)COC(=O)c1c(Br)c(Br)c(Br)c(Br)c1C(=O)OCC(CC)CCCC` (centres unmarked) [TBPH, bis-(2-ethylhexyl) tetrabromophthalate], the “binding to PPARγ LBD” value [1] is given as “did not demonstrate any binding” and the “metabolism into the monoester” value [2] is given as “minimally metabolized into the monoester”.
For `O=P(Oc1ccccc1)(Oc1ccccc1)Oc1ccccc1` [TPP, triphenyl phosphate], the IC50 [1] was 38 µM, the Kd [1] was 20 µM and the EC50 (human PPARγ1) was 8 µM. For the same molecule, the “concentrations significantly inducing PPARγ-driven reporter activity” value (human PPARγ1; Cos7, 24 hr, molar values of FM550 and ITP estimated) was ≥ 10 µM, the “maximal PPARγ-driven reporter activity” value (human PPARγ1; fold-change from DN-control, 24 hr, rosiglitazone at 1 μM) was 7.5 ± 0.7 fold and the caspase-3 activity (BMS2 cells [3]) was “no increase in caspase-3 activity”. For the same molecule, the necrotic protein release (BMS2 cells [4]) was “no increase in necrotic protein release”, the “Fabp4 mRNA expression” value [5] was “significantly increased mRNA expression of Fabp4” and the “Sp7 mRNA expression” value [6] was “significant decrease in mRNA expression of Sp7”. The “cellularity (MTT)” value (BMS2 cells [7]; 24 hr, as high as 40 μg/mL (90 μM) FM550, 40 μM TPP, 40 μg/mL (100 μM) ITP) was “no loss of cellularity”, the “cellularity (MTT)” value (BMS2 cells [7]; 7 days, as high as 20 μg/mL (50 μM) FM550, 20 μM TPP, 10 μg/mL (30 μM) ITP) was “no loss of cellularity” and the “cellularity (MTT)” value (BMS2 cells [7]; 12 days, as high as 10 μg/mL (20 μM) FM550 or 20 μM TPP) was “no loss of cellularity”. For the same molecule, the “constitutive androstane receptor–mediated reporter activity” value [8] was “activating”, the “pregnane X receptor–mediated reporter activity” value (pregnane X receptor) was “activating” and the “estrogen receptor–mediated reporter activity” value (estrogen receptor) was “activating”. The “progesterone receptor–mediated reporter activity” value (progesterone receptor) was “antagonizing”, the “glucocorticoid receptor–mediated reporter activity” value (glucocorticoid receptor) was “antagonizing” and the maximal lipid accumulation (BMS2 cells [9]; 7 days, naive-corrected, rosiglitazone at 1 μM) was 614 ± 60 RFUs. For the same molecule, the “concentrations significantly inducing lipid accumulation” value (BMS2 cells [9]; BMS2, 7 days, molar values of FM550 and ITP estimated) was ≥ 5 µM, the perilipin expression [10] was “induced the expression of perilipin” and the alkaline phosphatase activity [11] was “significantly suppressed”. For the same molecule, the mineralization [12] was “significantly suppressed only alkaline phosphatase activity” and the “concentration inducing lipid accumulation” value [13] was 10 µM.
In the case of `CCCCC(CC)COC(=O)c1c(Br)c(Br)c(Br)c(Br)c1C(=O)O` (centres unmarked) [mono-(2-ethylhexyl) tetrabromophthalate], the adipocyte differentiation (NIH 3T3L1 cells) is given as “induced adipocyte differentiation”, the PPARα-mediated gene transcription (PPARα) is given as “activated” and the PPARγ-mediated gene transcription (PPARγ) is given as “activated”.
